From US20250073255A1, “USE OF FA-TYPE LIPID COMPOUNDS IN PREPARATION OF NUCLEIC ACID DELIVERY REAGENT AND RELATED PRODUCT” (BEIJING BAISHIKANG PHARMACEUTICAL TECHNOLOGY (BSJPHARMA) …, priority 2021, published 2025)

System: C57BL/6 male mice
Test: In vivo delivery study of lipid nucleic acid mixture (oral gavage, RT-qPCR of PGY-sRNA-26 in tissues)
Set-up: species or system mouse
Details: for oral delivery of single-stranded sRNA nucleic acids into mouse blood / oral delivery of single-stranded sRNA nucleic acids into mouse brain tissue / oral delivery of single-stranded sRNA nucleic acids into mouse femur / oral delivery of single-stranded sRNA nucleic acids into mouse heart tissue / oral delivery of single-stranded sRNA nucleic acids into mouse intestinal tissue / oral delivery of single-stranded sRNA nucleic acids into mouse kidney tissue / oral delivery of single-stranded sRNA nucleic acids into mouse liver tissue / oral delivery of single-stranded sRNA nucleic acids into mouse lung tissue / oral delivery of single-stranded sRNA nucleic acids into mouse pancreatic tissue / oral delivery of single-stranded sRNA nucleic acids into mouse spleen tissue / oral delivery of single-stranded sRNA nucleic acids into mouse stomach tissue: 100 μg lipid:10 nmol PGY-sRNA-26, sampled after 12 hours; for oral delivery of single-stranded sRNA nucleic acids into mouse heart tissue: vs free uptake group; for oral delivery of single-stranded sRNA nucleic acids into mouse intestinal tissue: intestine; for oral delivery of single-stranded sRNA nucleic acids into mouse pancreatic tissue: pancreas; for overall delivery efficacy: delivering nucleic acids into each tissue and blood tested: 100 μg lipid:10 nmol PGY-sRNA-26, all tissues and blood tested
How it was run: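 Stem-loop RT and SYBR qPCR, normalized to U6, measured PGY-sRNA-26 in blood and organs 12 h after gavage. Dosing was 10 nmol sRNA with 100 μg lipid, pre-mixed and heated 15 min at 90 °C, in 12-h-fasted mice, against saline and free-sRNA groups.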

Compound: CC/C=C\C/C=C\C/C=C\CCCCCCCC(=O)OCCCCCCCCCCCCCC [Lipid 824, tetradecyl (9Z,12Z,15Z)-octadeca-9,12,15-trienoate]
- oral delivery of single-stranded sRNA nucleic acids into mouse blood: can effectively orally deliver
- oral delivery of single-stranded sRNA nucleic acids into mouse brain tissue: can effectively orally deliver
- oral delivery of single-stranded sRNA nucleic acids into mouse femur: can effectively orally deliver
- oral delivery of single-stranded sRNA nucleic acids into mouse heart tissue: can effectively orally deliver
- oral delivery of single-stranded sRNA nucleic acids into mouse intestinal tissue: can effectively orally deliver
- oral delivery of single-stranded sRNA nucleic acids into mouse kidney tissue: can effectively orally deliver
- oral delivery of single-stranded sRNA nucleic acids into mouse liver tissue: can effectively orally deliver
- oral delivery of single-stranded sRNA nucleic acids into mouse lung tissue: can effectively orally deliver
- oral delivery of single-stranded sRNA nucleic acids into mouse pancreatic tissue: can effectively orally deliver
- oral delivery of single-stranded sRNA nucleic acids into mouse spleen tissue: can effectively orally deliver
- oral delivery of single-stranded sRNA nucleic acids into mouse stomach tissue: can effectively orally deliver

Compound: CC1(O)CCOC(=O)C1 (stereo not shown) [Lipid 603, 4-hydroxy-4-meth-yl-oxan-2-one]
- overall delivery efficacy: delivering nucleic acids into each tissue and blood tested: best delivery efficacy
- oral delivery of single-stranded sRNA nucleic acids into mouse blood: can effectively orally deliver
- oral delivery of single-stranded sRNA nucleic acids into mouse brain tissue: can effectively orally deliver
- oral delivery of single-stranded sRNA nucleic acids into mouse femur: can effectively orally deliver
- oral delivery of single-stranded sRNA nucleic acids into mouse heart tissue: can effectively orally deliver
- oral delivery of single-stranded sRNA nucleic acids into mouse intestinal tissue: can effectively orally deliver
- oral delivery of single-stranded sRNA nucleic acids into mouse kidney tissue: can effectively orally deliver
- oral delivery of single-stranded sRNA nucleic acids into mouse liver tissue: can effectively orally deliver
- oral delivery of single-stranded sRNA nucleic acids into mouse lung tissue: can effectively orally deliver
- oral delivery of single-stranded sRNA nucleic acids into mouse spleen tissue: can effectively orally deliver
- oral delivery of single-stranded sRNA nucleic acids into mouse stomach tissue: can effectively orally deliver

Compound: CCCCCCCCCCCCCCCC(N)=O [Lipid 599, hexadecanamide]
- overall delivery efficacy: delivering nucleic acids into each tissue and blood tested: best delivery efficacy
- oral delivery of single-stranded sRNA nucleic acids into mouse blood: can effectively orally deliver
- oral delivery of single-stranded sRNA nucleic acids into mouse brain tissue: can effectively orally deliver
- oral delivery of single-stranded sRNA nucleic acids into mouse femur: can effectively orally deliver
- oral delivery of single-stranded sRNA nucleic acids into mouse heart tissue: can effectively orally deliver
- oral delivery of single-stranded sRNA nucleic acids into mouse intestinal tissue: can effectively orally deliver
- oral delivery of single-stranded sRNA nucleic acids into mouse kidney tissue: can effectively orally deliver
- oral delivery of single-stranded sRNA nucleic acids into mouse liver tissue: can effectively orally deliver
- oral delivery of single-stranded sRNA nucleic acids into mouse lung tissue: can effectively orally deliver
- oral delivery of single-stranded sRNA nucleic acids into mouse spleen tissue: can effectively orally deliver
- oral delivery of single-stranded sRNA nucleic acids into mouse stomach tissue: can effectively orally deliver

Compound: O=C(O)C/C=C/CC(=O)O [Lipid 607, (E)-hex-3-enedioic acid]
- oral delivery of single-stranded sRNA nucleic acids into mouse blood: can effectively orally deliver
- oral delivery of single-stranded sRNA nucleic acids into mouse femur: can effectively orally deliver
- oral delivery of single-stranded sRNA nucleic acids into mouse heart tissue: can effectively orally deliver
- oral delivery of single-stranded sRNA nucleic acids into mouse kidney tissue: can effectively orally deliver
- oral delivery of single-stranded sRNA nucleic acids into mouse liver tissue: can effectively orally deliver
- oral delivery of single-stranded sRNA nucleic acids into mouse stomach tissue: can effectively orally deliver

Compound: CCCCCCCCCCCCCCC(=O)O [Lipid 605, pentadecanoic acid]
- oral delivery of single-stranded sRNA nucleic acids into mouse blood: can effectively orally deliver
- oral delivery of single-stranded sRNA nucleic acids into mouse femur: can effectively orally deliver
- oral delivery of single-stranded sRNA nucleic acids into mouse stomach tissue: can effectively orally deliver

Compound: CCCCCC/C=C\CCCCCCCC(=O)OCCCCCCCCCCCCCCCCCCC [Lipid 822, nonadecyl (Z)-hexadec-9-enoate]
- overall delivery efficacy: delivering nucleic acids into each tissue and blood tested: best delivery efficacy
- oral delivery of single-stranded sRNA nucleic acids into mouse blood: can effectively orally deliver
- oral delivery of single-stranded sRNA nucleic acids into mouse brain tissue: can effectively orally deliver
- oral delivery of single-stranded sRNA nucleic acids into mouse femur: can effectively orally deliver
- oral delivery of single-stranded sRNA nucleic acids into mouse heart tissue: can effectively orally deliver
- oral delivery of single-stranded sRNA nucleic acids into mouse intestinal tissue: can effectively orally deliver
- oral delivery of single-stranded sRNA nucleic acids into mouse kidney tissue: can effectively orally deliver
- oral delivery of single-stranded sRNA nucleic acids into mouse liver tissue: can effectively orally deliver
- oral delivery of single-stranded sRNA nucleic acids into mouse lung tissue: can effectively orally deliver
- oral delivery of single-stranded sRNA nucleic acids into mouse pancreatic tissue: can effectively orally deliver
- oral delivery of single-stranded sRNA nucleic acids into mouse spleen tissue: can effectively orally deliver
- oral delivery of single-stranded sRNA nucleic acids into mouse stomach tissue: can effectively orally deliver

Compound: CCCCC/C=C\C/C=C\C/C=C\C/C=C\CCCC(=O)NCCN(CC)CC [Lipid 810, (5Z,8Z,11Z,14Z)-N-[2-(diethylamino)ethyl]icosa-5,8,11,14-tetraenamide]
- overall delivery efficacy: delivering nucleic acids into each tissue and blood tested: best delivery efficacy
- oral delivery of single-stranded sRNA nucleic acids into mouse blood: can effectively orally deliver
- oral delivery of single-stranded sRNA nucleic acids into mouse brain tissue: can effectively orally deliver
- oral delivery of single-stranded sRNA nucleic acids into mouse femur: can effectively orally deliver
- oral delivery of single-stranded sRNA nucleic acids into mouse heart tissue: can effectively orally deliver
- oral delivery of single-stranded sRNA nucleic acids into mouse intestinal tissue: can effectively orally deliver
- oral delivery of single-stranded sRNA nucleic acids into mouse kidney tissue: can effectively orally deliver
- oral delivery of single-stranded sRNA nucleic acids into mouse liver tissue: can effectively orally deliver
- oral delivery of single-stranded sRNA nucleic acids into mouse lung tissue: can effectively orally deliver
- oral delivery of single-stranded sRNA nucleic acids into mouse pancreatic tissue: can effectively orally deliver
- oral delivery of single-stranded sRNA nucleic acids into mouse spleen tissue: can effectively orally deliver
- oral delivery of single-stranded sRNA nucleic acids into mouse stomach tissue: can effectively orally deliver

Compound: CCCCC/C=C\C/C=C\CCCCCCCCOC(=O)CCCCCCCCCCCCCCCCCCC [Lipid 812, [(9Z,12Z)-octadeca-9,12-dienyl] icosanoate]
- oral delivery of single-stranded sRNA nucleic acids into mouse blood: can effectively orally deliver
- oral delivery of single-stranded sRNA nucleic acids into mouse brain tissue: can effectively orally deliver
- oral delivery of single-stranded sRNA nucleic acids into mouse femur: can effectively orally deliver
- oral delivery of single-stranded sRNA nucleic acids into mouse heart tissue: can effectively orally deliver
- oral delivery of single-stranded sRNA nucleic acids into mouse intestinal tissue: can effectively orally deliver
- oral delivery of single-stranded sRNA nucleic acids into mouse kidney tissue: can effectively orally deliver
- oral delivery of single-stranded sRNA nucleic acids into mouse liver tissue: can effectively orally deliver
- oral delivery of single-stranded sRNA nucleic acids into mouse lung tissue: can effectively orally deliver
- oral delivery of single-stranded sRNA nucleic acids into mouse pancreatic tissue: can effectively orally deliver
- oral delivery of single-stranded sRNA nucleic acids into mouse spleen tissue: can effectively orally deliver
- oral delivery of single-stranded sRNA nucleic acids into mouse stomach tissue: can effectively orally deliver

Compound: CCCCCCCCCCCCCCCC=O [Lipid 602]
- overall delivery efficacy: delivering nucleic acids into each tissue and blood tested: best delivery efficacy
- oral delivery of single-stranded sRNA nucleic acids into mouse blood: can effectively orally deliver
- oral delivery of single-stranded sRNA nucleic acids into mouse brain tissue: can effectively orally deliver
- oral delivery of single-stranded sRNA nucleic acids into mouse femur: can effectively orally deliver
- oral delivery of single-stranded sRNA nucleic acids into mouse heart tissue: can effectively orally deliver
- oral delivery of single-stranded sRNA nucleic acids into mouse intestinal tissue: can effectively orally deliver
- oral delivery of single-stranded sRNA nucleic acids into mouse kidney tissue: can effectively orally deliver
- oral delivery of single-stranded sRNA nucleic acids into mouse liver tissue: can effectively orally deliver
- oral delivery of single-stranded sRNA nucleic acids into mouse lung tissue: can effectively orally deliver
- oral delivery of single-stranded sRNA nucleic acids into mouse spleen tissue: can effectively orally deliver
- oral delivery of single-stranded sRNA nucleic acids into mouse stomach tissue: can effectively orally deliver
